Experimental data published in patent publication US5455226A, “EGF-containing pharmaceutical composition for the treatment of bronchopulmonary pathologies” (Synthelabo, priority 1991, dated 1995).
Values joined by “and” are separate entries in the source; they are usually repeats but may differ in a detail not shown here. Identical values can stand only once.

Tests used:
[1] = system: surface epithelial cells dissociated from nasal polyp; assay: In vitro model of lesion of the respiratory epithelium: repair index; type: cell-based, human; conditions: for repair index: 10 ng/ml
Protocol: Surface epithelial cells dissociated from nasal polyp are cultured on a collagen I matrix in RPMI culture medium supplemented with hydrocortisone,retinoic acid, insulin and EGF (epidermal growth factor). After about 3 days of culture, when the cells have become confluent, the supplemented culture medium is replaced with unsupplemented RPMI medium. After incubating for 12 hours in the presence of unsupplemented medium, the culture is placed on the stage of an inverted microscope equipped with a micromanipulator. A microcapillary, guided by the micromanipulator, makes it possible to detach cells, thus creating a wound with a surface area of about 100,000 μm^2. The unsupplemented culture medium is then replaced with culture medium containing only EGF at different concentrations. Video recordings of the injured culture are then made every hour. Using these video recordings, an image analyser makes it possible to monitor the variation of the surface area of the wound as a function of time. A regression line between the surface area of the wound (expressed in μm^2) and the time (expressed in hours) makes it possible to calculate the slope of the regression line obtained, a slope which corresponds to the decrease in the surface area of the wound per unit of time. The latter parameter corresponds to the repair index (the higher the index, the faster the repair).
Eight nasal polyps were used to culture respiratory epithelial cells (5 culture dishes per polyp). In each of these dishes, the injured cultures are incubated either in the presence of unsupplemented culture medium, or in the presence of culture medium supplemented with EGF at various concentrations (5, 10, 20 or 50 ng/ml). From the variation of the surface area as a function of time (the repair index corresponds to the slope of the regression line between the surface area of the wound and time), we calculated the repair index. This index is then expressed relative to the repair index obtained with the EGF-free culture medium used as control. The results obtained show a systematic increase in the repair index for wounds in the presence of EGF. At a concentration of 5 and 10 ng/ml, EGF stimulates the repair by 38% and 36% respectively. At the concentration of 20 ng/ml, the stimulation is 49%.
This study was carried out under the same experimental conditions as above. The repair index for the wounds was quantified in the presence of unsupplemented culture medium and in the presence of culture medium supplemented either with EGF of mouse submaxillary gland (m-EGF: 10 ng/ml), or with recombinant human EGF (h-EGF: 10 ng/ml).

[2] = system: human respiratory epithelial cells (from nasal polyps); assay: Explant culture of respiratory epithelial cells: growth area around explants; type: cell-based; conditions: increasing EGF concentration up to 20 ng/ml; p<0.05
Protocol: (§1) Cultures of respiratory epithelial cells are obtained from nasal polyps by the technique of explants (growth of cells around the explant) and by the technique of dissociated cells cultured in a three-dimensional collagen matrix (collagen lattice).
(§2) The explants are cultured in the presence of varying concentrations (0, 5, 10 and 20 ng/ml) of EGF (EGF from mouse submaxillary glands, ref. E 4127, Sigma). The growth area around the explants is quantified after 3 and 4 days of culture. The percentage of growth area covered with ciliated cells as well as the ciliary beat frequency were measured after 3 days of culture. For the collagen lattice culture technique, the number of cells in culture was quantified up to 11 days after of culture, and this in the absence and in the presence of EGF (10 ng/ml).

[3] = system: ciliated cells of human respiratory epithelium; assay: Functional activity of ciliated cells in explant culture; type: cell-based; conditions: 20 ng/ml of EGF, after 3 days of culture
Protocol: as §1, §2

[4] = system: superficial respiratory epithelial cells; assay: Retraction of the collagen lattice by respiratory epithelial cells; type: cell-based, human; conditions: after 8 days of culture in the presence of EGF
Protocol: (§3) The study of the repair of wounds of the respiratory epithelium was performed on an in vitro model. Thirty to 50 cells are detached from the culture by means of a micromanipulator so as to expose the collagen matrix on which the epithelial cells proliferate. The repair of this injured region is monitored as a function of time on cultures in the presence of EGF (10 ng/ml) or in the absence of EGF. For the technique of culture of dissociated cells in a collagen lattice, the effect of EGF on the retraction of the collagen lattice was studied after 8 days of culture. This retraction is quantified by measuring the area of the collagen lattice.

[5] = system: human respiratory epithelial cells in culture; assay: In vitro model of respiratory epithelium wound repair (30 to 50 cells detached by micromanipulator); type: cell-based; conditions: EGF 10 ng/ml
Protocol: as §3

[6] = system: human respiratory epithelial cells (from nasal polyps); assay: Dissociated respiratory epithelial cells cultured in a collagen lattice: cell number and morphology; type: cell-based
Protocol: as §1, §2

Substance	repair index [1]	growth area around the explants [2]	ciliary beat frequency [3]	percentage of the growth surface covered with ciliated cells [3]	collagen lattice area [4]	stimulation of the repair (repair index relative to EGF-free control) ([1]; EGF 5 ng/ml)	stimulation of the repair (repair index relative to EGF-free control) ([1]; EGF 10 ng/ml)	stimulation of the repair (repair index relative to EGF-free control) ([1]; EGF 20 ng/ml)	repair index compared with the index obtained with 20 ng/ml of EGF ([1]; EGF 50 ng/ml, p<0.05)	slope of the regression line (wound repair) [5]	number of cells ([6]; after 8 days of culture, in the presence of EGF vs without)	rate of cell proliferation ([6]; collagen lattice, EGF 10 ng/ml, compared with cultures without EGF)	formation of three-dimensional structures ([6]; collagen lattice, EGF in the culture medium)
h-EGF: recombinant human EGF (Sigma, Ref. E-3264)	11492 μm^2 /h	–	–	–	–	–	–	–	–	–	–	–	–
EGF: Epidermal Growth Factor polypeptide from mouse submaxillary glands, ref. E 4127, Sigma	11215 μm^2 /h	substantial increase in the growth area	14.5 Hz	43%	660 mm^2	38%	36%	49% and ~50%	significantly (p<0.05) reduced	-71.8	twice as high	higher	promotes the formation of tubular type three-dimensional structures
